Data set [1] in a line: Cytotoxicity (CC50), MTT assay. It counts as cell-based. To be noted: human; 50% cytotoxicity; read-out: CC50. On the procedure:
The susceptibility of HIV-1LAI to various drugs was determined as previously described with minor modifications. Briefly, MT-2 cells (10^4/ml) were exposed to 100 50% tissue culture infectious doses (TCID50) of HIV-1LAI in the presence or absence of various concentrations of drugs in 96-well microculture plates and were incubated at 37° C. for 7 days. After 100 μl of the medium was removed from each well, 3-(4,5-dimetylthiazol-2-yl)-2,5-diphenyltetrazolium bromide (MTT) solution (10 μl, 7.5 mg/ml in phosphate-buffered saline) was added to each well in the plate, followed by incubation at 37° C. for 2 h. […] All assays were performed in duplicate or triplicate. […] In determining the drug susceptibility of certain laboratory HIV-1 strains, MT-4 cells were employed as target cells as previously described with minor modifications. In brief, MT-4 cells (10^5/ml) were exposed to 100 TCID50 of drug-resistant HIV-1 strains in the presence or absence of various concentrations of drugs and were incubated at 37° C. On day 7 of culture, the supernatants were harvested and the amounts of p24 Gag protein were determined by using a fully automated chemiluminescent enzyme immunoassay system (Lumipulse F: Fujirebio Inc., Tokyo). […] All assays were performed in duplicate or triplicate. PHA-PBMs were derived from a single donor in each independent experiment. Thus, for obtaining the data, three different donors were recruited.

For another data set, the system named is HIV-1ERS104pre. Briefly: p24 Gag production inhibition in PHA-PBMs, wild-type clinical isolate. It counts as cell-based. To be noted: Human immunodeficiency virus 1; PHA-PBMs, p24 Gag endpoint; read-out: EC50 HIV-1ERS104pre (X4). On the procedure:
(§1) All primary HIV-1 strains were passaged once or twice in 3-day-old phytohemagglutinin activated peripheral blood mononuclear cells (PHA-PBM), and the culture supernatants were stored at −80° C. until use.
(§2) The susceptibility of HIV-1LAI to various drugs was determined as previously described with minor modifications. Briefly, MT-2 cells (10^4/ml) were exposed to 100 50% tissue culture infectious doses (TCID50) of HIV-1LAI in the presence or absence of various concentrations of drugs in 96-well microculture plates and were incubated at 37° C. for 7 days. After 100 μl of the medium was removed from each well, 3-(4,5-dimetylthiazol-2-yl)-2,5-diphenyltetrazolium bromide (MTT) solution (10 μl, 7.5 mg/ml in phosphate-buffered saline) was added to each well in the plate, followed by incubation at 37° C. for 2 h. […] All assays were performed in duplicate or triplicate. […] To determine the sensitivity of primary HIV-1 isolates to drugs, phytohemagglutinin-stimulated peripheral blood mononuclear cells (PHA-PBMC) (10^6/ml) were exposed to 50 TCID50 of each primary HIV-1 isolate and cultured in the presence or absence of various concentrations of drugs in 10-fold serial dilutions in 96-well microculture plates. In determining the drug susceptibility of certain laboratory HIV-1 strains, MT-4 cells were employed as target cells as previously described with minor modifications. In brief, MT-4 cells (10^5/ml) were exposed to 100 TCID50 of drug-resistant HIV-1 strains in the presence or absence of various concentrations of drugs and were incubated at 37° C. On day 7 of culture, the supernatants were harvested and the amounts of p24 Gag protein were determined by using a fully automated chemiluminescent enzyme immunoassay system (Lumipulse F: Fujirebio Inc., Tokyo). […] All assays were performed in duplicate or triplicate. PHA-PBMs were derived from a single donor in each independent experiment. Thus, for obtaining the data, three different donors were recruited.

The subject of the next data set is HIV-1MDR/B. Briefly: microbe, parasite or virus in culture. To be noted: Human immunodeficiency virus 1, read-out: EC50 HIV-1MDR/B (X4). It counts as cell-based. On the procedure:
as §1, §2

The test system of a further data set is HIV-1MDR/C. Briefly: microbe, parasite or virus in culture. To be noted: Human immunodeficiency virus 1, read-out: EC50 HIV-1MDR/C (X4). The format is cell-based. On the procedure:
as §1, §2

Another data set has as its system HIV-1MDR/G. Briefly: microbe, parasite or virus in culture. The format is cell-based. Conditions: Human immunodeficiency virus 1, read-out: EC50 HIV-1MDR/G (X4). On the procedure:
as §1, §2

In a further data set the test system is HIV-1MDR/JSL. Briefly: microbe, parasite or virus in culture. The format is cell-based. To be noted: Human immunodeficiency virus 1, read-out: EC50 HIV-1MDR/JSL (R5). On the procedure:
as §1, §2

Another data set concerns HIV-1MDR/MM. Description: microbe, parasite or virus in culture. To be noted: Human immunodeficiency virus 1, read-out: EC50 HIV-1MDR/MM (R5). The format is cell-based. On the procedure: as §1, §2
For the next data set, the system named is HIV-1MDR/TM. Briefly: microbe, parasite or virus in culture. It counts as cell-based. Conditions: Human immunodeficiency virus 1, read-out: EC50 HIV-1MDR/TM (X4). On the procedure:
as §1, §2

A further data set has as its system HIV-1NL4-3. Briefly: p24 Gag production inhibition in MT-4 cells, wild-type laboratory strain. The format is cell-based. To be noted: Human immunodeficiency virus 1, MT4; MT-4 cells, p24 Gag endpoint; read-out: EC50 HIV-1NL4-3. On the procedure:
as §2

The next data set deals with HIV-1APV^R5μM. Briefly: microbe, parasite or virus in culture. It counts as cell-based. To be noted: Human immunodeficiency virus 1, MT4, read-out: EC50 HIV-1APV^R5μM. On the procedure:
as §2

The next data set deals with HIV-1ATV^R5μM. Description: microbe, parasite or virus in culture. It counts as cell-based. To be noted: Human immunodeficiency virus 1, MT4, read-out: EC50 HIV-1ATV^R5μM. On the procedure:
as §2

In the next data set the test system is HIV-1LPV^R5μM. Briefly: microbe, parasite or virus in culture. Conditions: Human immunodeficiency virus 1, MT4, read-out: EC50 HIV-1LPV^R5μM. The format is cell-based. On the procedure: as §2
A further data set has as its system HIV-1SQV^R5μM. Briefly: microbe, parasite or virus in culture. Conditions: Human immunodeficiency virus 1, MT4, read-out: EC50 HIV-1SQV^R5μM. The format is cell-based. On the procedure:
as §2

The next data set has as its system HIV-1GRL04810^RP18. Description: microbe, parasite or virus in culture. Conditions: Human immunodeficiency virus 1, MT4, read-out: EC50 HIV-1GRL04810^RP18. It counts as cell-based. On the procedure: as §2
(§3) The amounts of p24 were measured every two days for up to 7 days.

A further data set has as its system HIV-1GRL05010^RP10. Description: microbe, parasite or virus in culture. It counts as cell-based. To be noted: Human immunodeficiency virus 1, MT4, read-out: EC50 HIV-1GRL05010^RP10. On the procedure:
as §2, §3

Data set [2] concerns HIV-1GRL-04810^RP18, and HIV-1GRL-05010^RP10. Briefly: p24 assay, the two GRL-selected variants taken together. It counts as cell-based. Conditions: Human immunodeficiency virus 1, read-out: EC50 values against HIV-1GRL-04810^RP18 and HIV-1GRL-05010^RP10. On the procedure:
as §2

The subject of the next data set is HIV-1LAI. Briefly: Antiviral activity of brain-side medium from the BBB assay, MTT assay in MT-2 cells. The format is cell-based. To be noted: HIV-1LAI. On the procedure: The “brain-side” of the medium containing a compound collected in the BBB in vitro assay, was subjected to antiviral assays. Two HIV-1 isolates were employed, HIV-1LAI (Panel A) and HIV-1ERS104pre (Panel B). […] Dilution ranges were between 10-fold and 10,000-fold, and the percentage of viral inhibition was used as an endpoint. […] Assays were conducted in duplicate and error bars show standard deviations.
The assay was carried out using 10, 100, 1000 and 10000 times-diluted brain-side stocks of compounds.

The nature of data set [3]: Apparent BBB permeability coefficient, in vitro BBB model (BBB Kit). Conditions: rat and monkey. On the procedure: (§4) The BBB Kit™ was kept at −80° C. until thawing on day 0 of the experiments. Nutritional medium was added to both brain and blood sides of the wells. This solution consists of DMEM F-12 medium with FCS 10% v/v, heparin 100 μg/ml, basic fibroblast growth factor (bFGF) 1.5 ng/ml, insulin 5 μg/ml, transferrin 5 μg/ml, sodium selenite 5 ng/ml, hydrocortisone 500 nM and gentamycin 50 μg/ml. Fresh medium was added 3 hours after thawing following the manufacturer's instructions, and 24 hours later. The plates were incubated at 37° C. until day 4 of the experiment when the condition of astrocytes was checked under a light microscope. Following this, the integrity of the collagen-coated membrane was verified by the measurement of the transendothelial electrical resistance (TEER) using an ohmmeter provided by the manufacturer. […] Detailed information regarding the components of the BBB Kit as well as its mechanisms can be seen by accessing the manufacturer's website http://www.pharmacocell.co.jp/en/bbb/index_e.html.
(§5) Standard curves were generated for each compound on a light spectrophotometer as previously described. 100 μM of each compound was added to the luminal (blood side) of the wells, incubated at 37° C. for 30 minutes and then, the amount of drug that crossed the in vitro BBB was collected and measured under a light spectrophotometer at 230 nanometer absorbances.
(§6) Papp was calculated using the following mathematical formula: […]
(§7) This model (BBB Kit™) is thought to represent an in vitro BBB model for drug transport assays, permitting an adequate cross-talk of the cell lines involved and provide a way to test an apparent passage of small molecules across the BBB as previously described by Nakagawa et al. (41). […] The concentrations of each compound that permeated into the abluminal interface (termed “brain side”) were determined using a spectrophotometer, 30 min after the addition of each drug to the wells.
(§8) The mathematical formula used for the calculation of Papp is described in Materials and Methods.

In data set [4] the test system is triple culture of rat-derived astrocytes, pericytes and monkey-derived endothelial cells. Described as above. Conditions: 100 μM on luminal (blood) side, 30 min, brain side measured at 230 nm. On the procedure:
as §4, §5, §6, §7, §8

SMILES strings stand for the structures.

In the case of `CC(C)CN(C[C@@H](O)[C@H](Cc1ccccc1)NC(=O)O[C@H]1CCOC1)S(=O)(=O)c1ccc(N)cc1` [APV, Amprenavir], the CC50 at 7 days in data set [1] is over 100 µM. The EC50 in the data set on HIV-1ERS104pre amounted to 0.0295 µM; in the data set with HIV-1MDR/B, 0.49 µM; in the data set with HIV-1MDR/C, 0.21 µM; with HIV-1MDR/G, 0.31 µM; in the data set with HIV-1MDR/JSL, 0.63 µM; with HIV-1MDR/MM, 0.27 µM. The EC50 with HIV-1MDR/TM is 0.328 µM; in the data set with HIV-1NL4-3 it was 0.081 µM; in the data set with HIV-1APV^R5μM, over 1 µM; in the data set with HIV-1ATV^R5μM, over 1 µM; with HIV-1LPV^R5μM it was 0.033 µM; with HIV-1SQV^R5μM, 0.435 µM. Also, the EC50 (in the data set on HIV-1GRL04810^RP18; in the data set on HIV-1GRL05010^RP10; in [2]) was over 1 µM throughout.
As for `CC(C)(C)NC(=O)[C@@H]1CN(Cc2cccnc2)CCN1C[C@@H](O)C[C@@H](Cc1ccccc1)C(=O)N[C@H]1c2ccccc2C[C@H]1O` [IDV, Indinavir], the “suppression levels of brain-side preparations compared (FIG. 5A)” value with HIV-1LAI was “less than those of GRL-04810^brain and GRL-05010^brain”.
In the case of `Cc1cccc(C)c1OCC(=O)N[C@@H](Cc1ccccc1)[C@@H](O)C[C@H](Cc1ccccc1)NC(=O)[C@H](C(C)C)N1CCCNC1=O` [LPV, Lopinavir], in data set [1], the CC50 at 7 days was 26.8 ± 0.9 µM. The EC50 in the data set on HIV-1ERS104pre was 0.033 µM; with HIV-1MDR/JSL, over 1 µM; in the data set with HIV-1NL4-3, 0.035 µM; with HIV-1LPV^R5μM, over 1 µM.
`Cn1c(=O)c2c(ncn2C)n(C)c1=O` [caffeine]: the Papp at 30 min, 100 μM in data set [3] was 100 ×10⁻⁶ cm/s. Moreover, the “Final abluminal tracer concentration” value in data set [4] worked out at 6.60 µM.

(Values after patent publication US9346820B2, “HIV-1 protease inhibitors having gem-di-fluoro bicyclic P2-ligands” (priority 2013, dated 2016).)
